Test results reported in patent US10357464B2, “Methods for delivering volatile anesthetics for regional anesthesia and/or pain relief” (The Board of Regents of the University of Texas System, priority 2006, dated 2019).
Values joined by “and” are separate entries in the source; they are usually repeats but may differ in a detail not shown here. Equal values may be shown once.

Experiments:
[1] = tested on: thermal C-fiber pain pathway; assay: Hotplate test (thermal withdrawal latency) after direct intrathecal injection of volatile anesthetic; settings: smallest intrathecally delivered dose of 2 microliters
[2] = tested on: thermal C-fiber pain pathway; assay: Hotplate test after intrathecal injection of isoflurane dissolved in saline (Study C); type: in vivo, rat; settings: 5 microliter isoflurane dissolved in saline
Description: Isoflurane was dissolved into saline using the following method (also referred to as the “bubbling” method). Study C: A mock vaporizing device was created using a 500 ml modified Erlenmeyer flask (2 inlets and 1 catheter into the liquid phase). The flask was partially filled with 0.9% normal saline and a stoppered glass pipette was inserted into the bottom of the liquid phase for injection of isoflurane. A second egress pipette allowed egress of gas from the closed container. 2% isoflurane solution in oxygen at 2 L/min was injected through the pipette, saturating the 0.9% saline solution after approximately 10 minutes of injection. 5 mL was drawn from the saturated saline solution and administered to […] using the procedures outlined in Example I above. For study C, all animals were prepared as for experiments A and B. The inventors injected 4 animals with 5 microliter of dissolved isoflurane solution (as prepared in 0030) via intrathecal catheter. Note, control (baseline) latency to paw withdrawal is different in Study C due to a different intensity of heat lamp used. Each animal serves as its own control in study C. Study C Data is presented here: in seconds to paw withdrawal to heat source. Table and graphic format.

[3] = tested on: thermal C-fiber pain pathway; assay: Hotplate test after intrathecal isoflurane dissolved in artificial cerebrospinal fluid (ACSF); type: in vivo, rat
Description: Pain sensitivity was measured after intrathecal administration of isoflurane in artificial cerebrospinal fluid (ACSF). Further, as detailed below, the isoflurane was first dissolved in ACSF and then sonicated before administration. The dose response relationship was then evaluated by generating a stimulus-response (SR) graph in order to determine relevant concentrations of isoflurane that may be administered intrathecally to achieve analgesia or anesthesia. The characterization of the pharmacological profile of intrathecal administration of isoflurane in ACSF was performed in this example using rats; further, as would be appreciated by one of skill in the art, analogous approaches may be used to determine the precise pharmacological profile in humans. Isoflurane dissolved in ACSF was prepared by the following method. […] The dose response relationship was then evaluated by generating a stimulus-response (SR) graph in order to standardize responses across animals and determine relevant concentrations of isoflurane that may be administered intrathecally to achieve analgesia or anesthesia. […] MPE is calculated as ((drug response time—baseline response time)/(cutoff time−baseline response time))*100. […]

[4] = Observation of adverse effects and recovery after intrathecal injection; type: in vivo, rat; settings: intrathecal injection of 2 microliters, rats
Description: These rats were then allowed time to recover from their intrathecal injection. There were no apparent adverse effects such as respiratory depression, cardiac, or neurological compromise. At 30 minutes after the injection, the rats were tested again, according to grouping:
This study also shed some light into the safety of intrathecally delivering active agent gases.

FC(F)OC(Cl)C(F)(F)F (stereo not shown) [isoflurane, 1-chloro-2,2,2-trifluoroethyl difluoromethyl ether]
analgesic effect (thermal latency time) [1]: analgesic effect
seconds to paw withdrawal to heat source, 5 MIN, mean ([2]; 5 min, mean of all readings (control mean 3.875)): 14.82 s
seconds to paw withdrawal to heat source, 5 MIN ([2]; 5 min, single readings per rat): 14.2 seconds and 20 seconds (3×) and 16 seconds and 9.8 seconds and 11.8 seconds (2×) and 9.1 seconds and 11 seconds and 15 seconds and 19.5 seconds and 10.9 seconds and 12.6 seconds and 18.1 seconds and 17.3 seconds
seconds to paw withdrawal to heat source, 10 MIN, mean ([2]; 10 min, mean of all readings): 9.181 s
seconds to paw withdrawal to heat source, 10 MIN ([2]; 10 min, single readings per rat): 12.2 seconds and 12 seconds (2×) and 9.1 seconds and 8.9 seconds and 8.8 seconds and 7.8 seconds and 10.2 seconds and 8.1 seconds and 5.4 seconds and 9 seconds (3×) and 6.8 seconds and 9.9 seconds and 8.7 seconds
seconds to paw withdrawal to heat source, 15 MIN, mean ([2]; 15 min, mean of all readings): 7.375 s
seconds to paw withdrawal to heat source, 15 MIN ([2]; 15 min, single readings per rat): 6.1 s and 7.1 s and 4.8 s and 5.2 s and 7.9 s and 6.4 s and 6.9 s and 4.3 s and 7.6 s and 7.3 s and 8.8 s and 7 s and 10.4 s and 9.4 s and 5.4 s and 13.4 s
seconds to paw withdrawal to heat source, 30 MIN, mean ([2]; 30 min, mean of all readings): 5.9375 s
seconds to paw withdrawal to heat source, 30 MIN ([2]; 30 min, single readings per rat): 5.2 seconds (2×) and 6.1 seconds and 5.8 seconds and 6.5 seconds and 4.9 seconds (2×) and 4.3 seconds and 4.7 seconds and 3.8 seconds and 6.8 seconds and 7.2 seconds and 8.2 seconds and 6.9 seconds and 8.1 seconds and 6.4 seconds
seconds to paw withdrawal to heat source, 60 MIN, mean ([2]; 60 min, mean of all readings): 4.456 s
seconds to paw withdrawal to heat source, 60 MIN ([2]; 60 min, single readings per rat): 4.2 seconds (2×) and 3.5 seconds (3×) and 3.3 seconds and 3.8 seconds (3×) and 6.1 seconds and 5.8 seconds and 5.1 seconds and 4.9 seconds and 4.7 seconds and 7 seconds and 4.1 seconds
maximal possible effect (MPE) ([3]; 10% v/v isoflurane in ACSF, 10 μl intrathecal (1.46 mg), 10 minutes after injection, cutoff 20 seconds): ~34%
analgesia (hind paw withdrawal threshold to radiant heat) ([3]; isoflurane in ACSF 10% v/v, 10 μL intrathecal, 1.46 mg dose): resulted in analgesia
adverse effects [4]: None of the rats in the study experienced adverse effects

FCOC(C(F)(F)F)C(F)(F)F [sevoflurane]
analgesic effect (thermal latency time) [1]: analgesic effect
adverse effects [4]: None of the rats in the study experienced adverse effects
